Test [1] has as its target T1, recombinant human Meningioma Expressed Antigen 5 (MGEA5), also referred to as O-GlcNAcase (OGA) (Homo sapiens, UniProt O60502).
T1 construct: Full length OGA enzyme was purchased at OriGene (cat #TP322411); purchased OriGene TP322411
T1 sequence (O60502 1-916): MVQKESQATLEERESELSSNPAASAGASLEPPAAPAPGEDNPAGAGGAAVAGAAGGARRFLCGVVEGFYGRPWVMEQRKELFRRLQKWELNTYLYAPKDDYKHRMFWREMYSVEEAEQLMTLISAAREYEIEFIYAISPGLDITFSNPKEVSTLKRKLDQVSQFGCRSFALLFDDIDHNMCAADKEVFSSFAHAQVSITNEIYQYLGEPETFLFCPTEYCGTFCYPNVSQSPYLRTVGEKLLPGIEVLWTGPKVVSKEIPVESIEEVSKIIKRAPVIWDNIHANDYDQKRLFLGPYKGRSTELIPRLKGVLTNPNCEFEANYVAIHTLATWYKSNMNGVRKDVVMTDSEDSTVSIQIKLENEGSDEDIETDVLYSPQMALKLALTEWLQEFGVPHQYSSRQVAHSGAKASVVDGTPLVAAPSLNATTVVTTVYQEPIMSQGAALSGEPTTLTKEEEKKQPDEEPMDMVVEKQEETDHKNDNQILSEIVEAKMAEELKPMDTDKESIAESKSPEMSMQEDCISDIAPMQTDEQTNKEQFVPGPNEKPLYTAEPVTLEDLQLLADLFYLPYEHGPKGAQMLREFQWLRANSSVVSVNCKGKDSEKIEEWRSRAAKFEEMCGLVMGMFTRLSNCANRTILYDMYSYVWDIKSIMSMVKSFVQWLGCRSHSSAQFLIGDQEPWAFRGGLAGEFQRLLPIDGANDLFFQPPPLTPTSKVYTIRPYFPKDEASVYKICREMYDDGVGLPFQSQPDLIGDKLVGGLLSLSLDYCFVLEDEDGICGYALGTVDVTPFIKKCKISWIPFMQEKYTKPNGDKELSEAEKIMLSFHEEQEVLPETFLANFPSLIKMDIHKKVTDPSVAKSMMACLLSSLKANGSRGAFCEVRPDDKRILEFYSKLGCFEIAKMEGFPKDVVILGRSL
The test can be described thus: OGA biochemical assay (inhibition of FM-GlcNAc hydrolysis, fluorescence). The settings on record: FM-GlcNAc substrate; for IC50: 6 h at room temperature, read-out: Enzymatic hOGA, pIC50 (converted); for Emax / Enzymatic Emax (%): maximal effect; for Emax: read-out: Enzymatic Emax (%). From the text: The assay is based on the inhibition of the hydrolysis of fluorescein mono-β-D-N-Acetyl-Glucosamine (FM-GlcNAc) (Mariappa et al. 2015, Biochem J 470:255) by the recombinant human Meningioma Expressed Antigen 5 (MGEA5), also referred to as O-GlcNAcase (OGA). The hydrolysis FM-GlcNAc (Marker Gene technologies, cat #M1485) results in the formation of β-D-N-glucosamineacetate and fluorescein. The fluorescence of the latter can be measured at excitation wavelength 485 nm and emission wavelength 538 nm. An increase in enzyme activity results in an increase in fluorescence signal. Full length OGA enzyme was purchased at OriGene (cat #TP322411). The enzyme was stored in 25 mM Tris.HCl, pH 7.3, 100 mM glycine, 10% glycerol at −20° C. Thiamet G and GlcNAcStatin were tested as reference compounds (Yuzwa et al. 2008 Nature Chemical Biology 4:483; Yuzwa et al. 2012 Nature Chemical Biology 8:393). The assay was performed in 200 mM Citrate/phosphate buffer supplemented with 0.005% Tween-20. 35.6 g Na2HPO4 2H2O (Sigma, #C0759) were dissolved in 1 L water to obtain a 200 mM solution. 19.2 g citric acid (Merck, #1.06580) was dissolved in 1 L water to obtain a 100 mM solution. pH of the sodiumphosphate solution was adjusted with the citric acid solution to 7.2. The buffer to stop the reaction consists of a 500 mM Carbonate buffer, pH 11.0. 734 mg FM-GlcNAc were dissolved in 5.48 mL DMSO to obtain a 250 mM solution and was stored at −20° C. OGA was used at a 2 nM concentration and FM-GlcNAc at a 100 uM final concentration. Dilutions were prepared in assay buffer.
50 nl of a compound dissolved in DMSO was dispensed on Black Proxiplate™ 384 Plus Assay plates (Perkin Elmer, #6008269) and 3 μl fl-OGA enzyme mix added subsequently. Plates were pre-incubated for 60 min at room temperature and then 2 μl FM-GlcNAc substrate mix added. […] Plates were briefly centrifuged for 1 min at 1000 rpm and incubate at room temperature for 6 h. To stop the reaction 5 μl STOP buffer were added and plates centrifuge again 1 min at 1000 rpm. Fluorescence was quantified in the Thermo Scientific Fluoroskan Ascent or the PerkinElmer EnVision with excitation wavelength 485 nm and emission wavelength 538 nm.
For analysis a best-fit curve is fitted by a minimum sum of squares method. From this an IC50 value and Hill coefficient was obtained. High control (no inhibitor) and low control (saturating concentrations of standard inhibitor) were used to define the minimum and maximum values.

A further test has as its target T2, OGA (Homo sapiens, UniProt O60502).
T2 construct: HEK293 cells inducible for P301L mutant human Tau (isoform 2N4R) were established at Janssen; endogenous in cells; host or cells: HEK293 cells inducible for P301L mutant human Tau (2N4R)
T2 sequence (O60502 1-916): T1 sequence (O60502 1-916)
The experiment in a line: OGA cellular assay (ICC detection of O-GlcNAcylated proteins in HEK293 cells inducible for P301L mutant human Tau). Format: cell-based. The settings on record: for EC50: 6 hours incubation, read-out: Cellular hOGA, pEC50 (converted). The method, then:
HEK293 cells inducible for P301L mutant human Tau (isoform 2N4R) were established at Janssen. Thiamet-G was used for both plate validation (high control) and as reference compound (reference EC50 assay validation). OGA inhibition is evaluated through the immunocytochemical (ICC) detection of O-GlcNAcylated proteins by the use of a monoclonal antibody (CTD110.6; Cell Signaling, #9875) detecting 0-GlcNAcylated residues as previously described (Dorfmueller et al. 2010 Chemistry & biology, 17:1250). Inhibition of OGA will result in an increase of O-GlcNAcylated protein levels resulting in an increased signal in the experiment. Cell nuclei are stained with Hoechst to give a cell culture quality control and a rough estimate of immediate compounds toxicity, if any. ICC pictures are imaged with a Perkin Elmer Opera Phenix plate microscope and quantified with the provided software Perkin Elmer Harmony 4.1.
Cells were propagated in DMEM high Glucose (Sigma, #D5796) following standard procedures. 2 days before the cell assay cells are split, counted and seeded in Poly-D-Lysine (PDL) coated 96-wells (Greiner, #655946) plate at a cell density of 12,000 cells per cm^2 (4,000 cells per well) in 100 μl of Assay Medium (Low Glucose medium is used to reduce basal levels of GlcNAcylation) (Park et al. 2014 The Journal of biological chemistry 289:13519). At the day of compound test medium from assay plates was removed and replenished with 90 μl of fresh Assay Medium. 10 μl of compounds at a 10fold final concentration were added to the wells. Plates were centrifuged shortly before incubation in the cell incubator for 6 hours. DMSO concentration was set to 0.2%. Medium is discarded by applying vacuum. For staining of cells medium was removed and cells washed once with 100 μl D-PBS (Sigma, #D8537). From next step onwards unless other stated assay volume was always 50 μl and incubation was performed without agitation and at room temperature. Cells were fixed in 50 μl of a 4% paraformaldehyde (PFA, Alpha aesar, #043368) PBS solution for 15 minutes at room temperature. […] Before analysis samples were washed 2 times manually for 5 minutes in ICC base buffer.
Imaging is performed using Perkin Elmer Phenix Opera using a water 20× objective and recording 9 fields per well. Intensity readout at 488 nm is used as a measure of O-GlcNAcylation level of total proteins in wells. To assess potential toxicity of compounds nuclei were counted using the Hoechst staining. IC50-values are calculated using parametric non-linear regression model fitting. As a maximum inhibition Thiamet G at a 200 uM concentration is present on each plate. In addition, a concentration response of Thiamet G is calculated on each plate.

Where [2] appears, read: HEK293, HEK293 cells inducible for P301L mutant human Tau, maximum = Thiamet G 200 uM.
Where [3] appears, read: HEK293 cells inducible for P301L mutant human Tau.
[4] abbreviates: HEK293 cells inducible for P301L mutant human Tau, maximum = Thiamet G 200 uM.

We go through 18 compounds from US20210115040A1, “OGA INHIBITOR COMPOUNDS” (Janssen Pharmaceutica NV, priority 2018, published 2021).

SMILES strings stand for the structures. Where only a bound is given, the exact number is not on record here.

Usually Emax stands for the greatest response seen or fitted, relative to the assay's reference.

For the compound `COc1cc(CN[C@H]2CCCN(C(C)c3ccc4sc(C)nc4n3)C2)cc(C)n1` (stereo partly shown) [Compound 107], in test [1], the IC50 was 0.0631 µM. In addition, the Emax in test [1] was 93%; on OGA (setting [2]), 60%. In addition, the EC50 on OGA (setting [3]) is 0.794 µM.
Turning to `Cc1cc(C[C@H]2CCCN(C(C)c3ccc4cn(C)nc4c3)C2)cc(C)n1` (mixture of isomers) [Compound 16], in test [1], the IC50 was 0.126 µM and the Emax was 97%. In addition, the EC50 at OGA (setting [3]) is more than 1 µM. Also, the Emax at OGA (setting [4]) was 14%.
Regarding `Cc1cc(CO[C@@H]2CCCN(C(C)c3ccc4sc(C)nc4n3)C2)cc(C)n1` (single isomer, unassigned) [Compound 69], in test [1], the IC50 is 0.501 µM and the Emax was 96%. Moreover, the Emax on OGA (setting [2]) is -6%. Also, the EC50 on OGA (setting [3]) was more than 1 µM.
As to `Cc1cc(NCC2CCCN(C(C)c3ccc4sc(C)nc4n3)C2)cc(C)n1` (stereo not shown) [Compound 105], in test [1], the IC50 is 0.501 µM and the Emax was 94%. Besides, on OGA (setting [2]), the Emax turned out to be 14%. Moreover, the EC50 on OGA (setting [3]) is more than 1 µM.
As to `Cc1cc(C[C@H]2CCCN(Cc3ccc4[nH]c(C)nc4n3)C2)cc(C)n1` [Compound 9], in test [1], the IC50 is 0.2 µM and the Emax is 96%. The Emax on OGA (setting [2]) was determined as 59%. In addition, at OGA (setting [3]), the EC50 is 0.631 µM.
`Cc1cc(C[C@@H]2CCN(C(C)c3ccc4oc(C(C)C)nc4n3)C2)cc(C)n1` (mixture of isomers) [Compound 31]: in test [1], the IC50 was more than 10 µM. Moreover, the Emax in test [1] is 30%; at OGA (setting [2]), -7%. Moreover, on OGA (setting [3]), the EC50 is more than 1 µM.
Turning to `Cc1cc(C[C@H]2CCCN(C(C)c3ccc4nc(C)[nH]c4n3)C2)cc(C)n1` (mixture of isomers) [Compound 8], the IC50 in test [1] is 0.1 µM. Besides, the figures for the Emax (in test [1]; at OGA (setting [2])) were 99% and 23%, respectively. Besides, the EC50 on OGA (setting [3]) was more than 1 µM.
The corresponding values for `COc1cc(C2CCCN(C(C)c3ccc4oc(C)nc4n3)C2)cc(C)n1` (racemic) [Compound 18] are 0.02 µM, 100%, 76% and 0.158 µM.
On to `Cc1cc(OC[C@H]2CCCN([C@@H](C)c3ccc4sc(C)nc4n3)C2)nc(C)n1` [Compound 49a], for which, in test [1], the IC50 is 2 µM and the Emax was 84%. Also, the Emax on OGA (setting [2]) was -2%. Moreover, the EC50 at OGA (setting [3]) was more than 1 µM.
On to `Cc1cc(O[C@@H]2CCN(C(C)c3ccc4sc(C)nc4n3)C2)cc(C)n1` (single isomer, unassigned) [Compound 73], for which, in test [1], the IC50 was more than 10 µM and the “Enzymatic Emax (%)” value is 8%. For the same compound, the EC50 on OGA (setting [3]) was more than 1 µM. The “Cellular Emax (%)” value at OGA (setting [4]) is listed as −9%.
In the case of `Cc1cc(C[C@H]2CCCN(C(C)c3ccc4sc(C)nc4n3)C2)cc(C)n1` (single isomer, unassigned) [Compound 42b], in test [1], the IC50 was 0.00251 µM and the “Enzymatic Emax (%)” value stood at 101%. Further, the Emax at OGA (setting [2]) was determined as 79%. Further, the EC50 on OGA (setting [3]) is 0.01 µM.
On to `Cc1cc(C[C@H]2CCCN(Cc3cnc4nc(C)oc4c3)C2)cc(C)n1` [Compound 37], for which, in test [1], the IC50 is 7.94 µM and the Emax worked out at 55%. The Emax on OGA (setting [2]) turned out to be 2%. Also, the EC50 at OGA (setting [3]) was more than 1 µM.
On the same counts, the results for `Cc1cc(NCC2CCCN(C(C)c3ccc4sc(C)nc4n3)C2)cc(C)n1` (single isomer, unassigned) [Compound 106] are 0.00501 µM, 99%, 92% and 0.00631 µM.
As to `Cc1cc(O[C@@H]2CCN(C(C)c3nc4nc(C)sc4cc3F)C2)cc(C)n1` (stereo partly shown) [Compound 92], in test [1], the IC50 was 0.0398 µM and the Emax came to 99%. The Emax on OGA (setting [2]) came out at 28%. The EC50 at OGA (setting [3]) is more than 1 µM.
Consider `Cc1cc(OC[C@@H]2CCCN(C(C)c3cc4nc(C)oc4cc3F)C2)cc(C)n1` (mixture of isomers) [Compound 35], for which, in test [1], the IC50 is 0.1 µM and the Emax is 101%.
`Cc1cc(C[C@H]2CCN(Cc3ccc4nc(C)sc4c3)C2)cc(C)n1` [Compound 55]: in test [1], the IC50 was more than 10 µM and the Emax stood at 18%.
With `COc1cc(C[C@H]2CCCN([C@@H](C)c3ccc4oc(C)nc4n3)C2)cc(C)n1` (relative stereo) [Compound 23b], in test [1], the IC50 was 0.2 µM and the Emax turned out to be 101%.
The corresponding values for `Cc1cc(OC[C@@H]2CCCN([C@H](C)c3ccc4sc(C)nc4n3)C2)cc(C)n1` [Compound 45a] are 0.501 µM and 95%.
